Reference: the NIST ThermoML archive (doi:10.1016/j.jct.2008.10.007)

What was measured:
[1] = xn = mol fraction of the nth substance listed; conditions: 298.15 K, 101 kPa, Liquid, Vibrating tube method
[2] = excess molar enthalpy (molar enthalpy of mixing); xn = mol fraction of the nth substance listed; conditions: 298.15 K, 101 kPa, Liquid, Calvet calorimetry

ClCCCCl [1,3-dichloropropane] + CCCOC(=O)CC
Conditions | excess molar enthalpy [kJ/mol] | mass density [kg/m3]
[1], x2 = 0.0456 | – | 1160.2
[1], x2 = 0.09 | – | 1142.38
[1], x2 = 0.1357 | – | 1124.66
[1], x2 = 0.1827 | – | 1107.03
[1], x2 = 0.2323 | – | 1089.1
[1], x2 = 0.2857 | – | 1070.52
[1], x2 = 0.3377 | – | 1053.06
[1], x2 = 0.3926 | – | 1035.32
[1], x2 = 0.5112 | – | 999.15
[1], x2 = 0.5749 | – | 980.88
[1], x2 = 0.6382 | – | 963.43
[1], x2 = 0.7097 | – | 944.54
[1], x2 = 0.7804 | – | 926.67
[1], x2 = 0.8459 | – | 910.76
[1], x2 = 0.9232 | – | 892.71
[2], x2 = 0.0469 | -0.039 | –
[2], x2 = 0.1103 | -0.087 | –
[2], x2 = 0.1814 | -0.151 | –
[2], x2 = 0.2562 | -0.228 | –
[2], x2 = 0.3312 | -0.289 | –
[2], x2 = 0.4023 | -0.336 | –
[2], x2 = 0.4661 | -0.369 | –
[2], x2 = 0.528 | -0.388 | –
[2], x2 = 0.6046 | -0.374 | –
[2], x2 = 0.706 | -0.332 | –
[2], x2 = 0.816 | -0.241 | –
[2], x2 = 0.9152 | -0.133 | –

CCCOC=O [propyl methanoate] + ClCCCCCl
Conditions | excess molar enthalpy [kJ/mol] | mass density [kg/m3]
[1], x1 = 0.0699 | – | 1119.28
[1], x1 = 0.1344 | – | 1105.73
[1], x1 = 0.2012 | – | 1091.45
[1], x1 = 0.3873 | – | 1050.4
[1], x1 = 0.4476 | – | 1036.71
[1], x1 = 0.5676 | – | 1008.76
[1], x1 = 0.6231 | – | 995.55
[1], x1 = 0.6814 | – | 981.44
[1], x1 = 0.7384 | – | 967.39
[1], x1 = 0.7933 | – | 953.67
[1], x1 = 0.8452 | – | 940.47
[1], x1 = 0.8982 | – | 926.78
[1], x1 = 0.9521 | – | 912.65
[1], x1 = 1 | – | 899.81
[2], x1 = 0.0692 | 0.039 | –
[2], x1 = 0.1586 | 0.065 | –
[2], x1 = 0.2416 | 0.08 | –
[2], x1 = 0.3365 | 0.077 | –
[2], x1 = 0.4234 | 0.062 | –
[2], x1 = 0.5005 | 0.042 | –
[2], x1 = 0.5667 | 0.017 | –
[2], x1 = 0.6288 | -0.016 | –
[2], x1 = 0.6884 | -0.035 | –
[2], x1 = 0.7528 | -0.038 | –
[2], x1 = 0.817 | -0.038 | –
[2], x1 = 0.8815 | -0.028 | –
[2], x1 = 0.9414 | -0.013 | –

CCCOC(=O)CCC [propyl butanoate] + ClCCCCCCCl
Conditions | excess molar enthalpy [kJ/mol] | mass density [kg/m3]
[1], x1 = 0.1123 | – | 1041.34
[1], x1 = 0.1686 | – | 1030.2
[1], x1 = 0.2265 | – | 1018.77
[1], x1 = 0.2841 | – | 1007.46
[1], x1 = 0.3424 | – | 995.99
[1], x1 = 0.4025 | – | 984.2
[1], x1 = 0.4598 | – | 973.01
[1], x1 = 0.5766 | – | 950.16
[1], x1 = 0.6959 | – | 926.91
[1], x1 = 0.755 | – | 915.37
[1], x1 = 0.8145 | – | 903.79
[1], x1 = 0.8778 | – | 891.49
[1], x1 = 0.9367 | – | 880.14
[1], x1 = 1 | – | 867.9
[2], x1 = 0.0619 | -0.022 | –
[2], x1 = 0.1445 | -0.046 | –
[2], x1 = 0.2343 | -0.076 | –
[2], x1 = 0.3207 | -0.108 | –
[2], x1 = 0.3911 | -0.137 | –
[2], x1 = 0.4594 | -0.158 | –
[2], x1 = 0.5174 | -0.169 | –
[2], x1 = 0.5559 | -0.172 | –
[2], x1 = 0.6181 | -0.168 | –
[2], x1 = 0.6903 | -0.155 | –
[2], x1 = 0.7651 | -0.132 | –
[2], x1 = 0.849 | -0.096 | –
[2], x1 = 0.9334 | -0.05 | –

CCCOC=O [propyl methanoate] + ClCCCCCCCl
Conditions | excess molar enthalpy [kJ/mol] | mass density [kg/m3]
[1], x1 = 0.0861 | – | 1054
[1], x1 = 0.1676 | – | 1044.21
[1], x1 = 0.2459 | – | 1034.25
[1], x1 = 0.3157 | – | 1024.9
[1], x1 = 0.3867 | – | 1014.88
[1], x1 = 0.4515 | – | 1005.28
[1], x1 = 0.5124 | – | 995.82
[1], x1 = 0.6287 | – | 976.43
[1], x1 = 0.6818 | – | 966.95
[1], x1 = 0.7826 | – | 947.72
[1], x1 = 0.8311 | – | 937.83
[1], x1 = 0.8777 | – | 927.92
[1], x1 = 0.9609 | – | 909.1
[1], x1 = 1 | – | 899.81
[2], x1 = 0.0891 | 0.088 | –
[2], x1 = 0.2066 | 0.156 | –
[2], x1 = 0.3241 | 0.205 | –
[2], x1 = 0.4164 | 0.219 | –
[2], x1 = 0.4832 | 0.211 | –
[2], x1 = 0.5353 | 0.198 | –
[2], x1 = 0.5847 | 0.181 | –
[2], x1 = 0.6323 | 0.163 | –
[2], x1 = 0.6975 | 0.135 | –
[2], x1 = 0.7658 | 0.104 | –
[2], x1 = 0.8389 | 0.069 | –
[2], x1 = 0.9059 | 0.038 | –
[2], x1 = 0.9621 | 0.016 | –

CCCOC=O [propyl methanoate] + ClCCCCl
Conditions | excess molar enthalpy [kJ/mol] | mass density [kg/m3]
[1], x1 = 0.0604 | – | 1161.58
[1], x1 = 0.1163 | – | 1145.6
[1], x1 = 0.1772 | – | 1128.25
[1], x1 = 0.2336 | – | 1112.22
[1], x1 = 0.2937 | – | 1095.19
[1], x1 = 0.3531 | – | 1078.45
[1], x1 = 0.4676 | – | 1046.35
[1], x1 = 0.5255 | – | 1030.24
[1], x1 = 0.5854 | – | 1013.57
[1], x1 = 0.6437 | – | 997.42
[1], x1 = 0.7051 | – | 980.49
[1], x1 = 0.7636 | – | 964.45
[1], x1 = 0.8238 | – | 947.98
[1], x1 = 0.8823 | – | 932.02
[1], x1 = 1 | – | 899.81
[2], x1 = 0.065 | -0.015 | –
[2], x1 = 0.1452 | -0.031 | –
[2], x1 = 0.2308 | -0.054 | –
[2], x1 = 0.3182 | -0.079 | –
[2], x1 = 0.3939 | -0.099 | –
[2], x1 = 0.4578 | -0.105 | –
[2], x1 = 0.5145 | -0.114 | –
[2], x1 = 0.5379 | -0.113 | –
[2], x1 = 0.5862 | -0.112 | –
[2], x1 = 0.6669 | -0.103 | –
[2], x1 = 0.7509 | -0.088 | –
[2], x1 = 0.8484 | -0.062 | –
[2], x1 = 0.9347 | -0.032 | –

ClCCCCCCl [1,5-dichloropentane] + CCCOC(=O)CC
Conditions | excess molar enthalpy [kJ/mol] | mass density [kg/m3]
[1], x2 = 0.0586 | – | 1081.99
[1], x2 = 0.1204 | – | 1068.2
[1], x2 = 0.1736 | – | 1056.39
[1], x2 = 0.2854 | – | 1031.55
[1], x2 = 0.3403 | – | 1019.42
[1], x2 = 0.4006 | – | 1006.12
[1], x2 = 0.5242 | – | 978.97
[1], x2 = 0.635 | – | 954.74
[1], x2 = 0.6961 | – | 941.43
[1], x2 = 0.7548 | – | 928.67
[1], x2 = 0.8219 | – | 914.07
[1], x2 = 0.8809 | – | 901.3
[1], x2 = 0.942 | – | 888.12
[2], x2 = 0.0588 | -0.017 | –
[2], x2 = 0.1375 | -0.057 | –
[2], x2 = 0.2257 | -0.101 | –
[2], x2 = 0.3118 | -0.157 | –
[2], x2 = 0.3922 | -0.207 | –
[2], x2 = 0.4517 | -0.241 | –
[2], x2 = 0.4693 | -0.247 | –
[2], x2 = 0.5239 | -0.255 | –
[2], x2 = 0.5982 | -0.246 | –
[2], x2 = 0.6783 | -0.22 | –
[2], x2 = 0.7663 | -0.178 | –
[2], x2 = 0.855 | -0.12 | –
[2], x2 = 0.9359 | -0.061 | –
